This note sets out measurements from patent US20190083563A1 (priority 2014, published 2019).

A short description of one series: in vitro. To be noted: dog.
A further series deals with influenza B virus. The experiment in a line: microbe, parasite or virus in culture. The series is classed as cell-based.
The next series concerns influenza A virus H3N2. As to the kind of experiment: microbe, parasite or virus in culture. The series is classed as cell-based.
The test system of the next series is influenza A virus H1N1. As to the kind of experiment: microbe, parasite or virus in culture. It counts as cell-based.
A further series deals with influenza A virus H5N1. As to the kind of experiment: microbe, parasite or virus in culture. The series is classed as cell-based.
Series [1] has as its system influenza virus H1N1. It counts as cell-based, influenza A virus.
In series [2] the test system is influenza virus H1N1. As to the kind of experiment: Investigation on cell binding of influenza virus (virus and sample mixed, 4° C., MTT cell viability). The series is classed as cell-based, influenza A virus.

Converted amounts (≈) assume the structure as drawn.

As to `CCOC(=O)C1=C[C@@H](OC(CC)CC)[C@H](NC(C)=O)[C@@H](N)C1` [Tamiflu], in “in vitro”, the CC50 stood at 1110 µg/mL (≈ 3560 µM). The SI in the series with influenza B virus (CC50 value divided by the EC50 value) came out at 81; in the series on influenza A virus H3N2 (H3N2, CC50 value divided by the EC50 value), 317; in the series on influenza A virus H1N1 (H1N1, CC50 value divided by the EC50 value), 317; in the series with influenza A virus H5N1 (H5N1, CC50 value divided by the EC50 value), 740. Besides, the 50% effective concentration (EC50) in the series on influenza B virus (MDCK cells, post-treatment, 48 hours) worked out at 13.7 µg/mL (≈ 43.9 µM); in the series with influenza A virus H3N2 (Influenza A virus, H3N2, MDCK cells, post-treatment, 48 hours), 3.5 µg/mL (≈ 11.2 µM); in the series with influenza A virus H1N1 (Influenza A virus, H1N1, MDCK cells, post-treatment, 48 hours), 3.5 µg/mL (≈ 11.2 µM); in the series with influenza A virus H5N1 (Influenza A virus, H5N1, MDCK, 48 h), 1.5 µg/mL (≈ 4.8 µM). Moreover, the “observing the cells by a microscope, post-treatment” value with influenza A virus H1N1 was “many cells were infected and dead”. Moreover, in the series on influenza virus H1N1 [1], the “CPE of cells, virus preventive effect” value is reported as “all the cells treated with Tamiflu were dead”. Besides, the “observing the cells using a microscope, virus preventive effect” value in the series with influenza virus H1N1 [1] is on record as “infected cell state”. For the same compound, the “antiviral effect in virus binding test” value in the series with influenza virus H1N1 [2] is “no antiviral effect”.
